The text below walks through data of patent US9593305B2, “Differentiation of pluripotent stem cells” (Janssen Biotech, Inc., priority 2008, dated 2017).

One test has as its system scid-beige mice. Put plainly: Transplantation of differentiated cells under the kidney capsule, human C-peptide ELISA (Example 18). Type of test: in vivo, mouse. Conditions: 8-weeks post-transplant; cells treated in step 1 as named (compounds with GDF-8). The method, then: Five to six-week-old male scid-beige mice (C.B-Igh-1 b1 GbmsTac-Prkdc^scid-Lyst^bgN7) were purchased from Taconic Farms. Mice were housed in microisolator cages with free access to sterilized food and water. In preparation for surgery, mice were identified by ear tagging, their body weight was measured, and their blood glucose was determined using a hand held glucometer (LifeScan; One Touch). On the day of surgery, mice were anesthetized with a mixture of isolflurane and oxygen, and the surgical site was shaved with small animal clippers. Mice were dosed with 0.1 mg·kg Buprenex subcutaneously pre-operatively. The surgical site was prepared with successive washes of 70% isopropyl alcohol, 10% povidone-iodide, and 70% isopropyl alcohol, and a left lateral incision was made through the skin and muscle layers. […]
Following transplantation, mice were weighed once per week and blood glucose was measured twice per week. […] Human C-peptide levels were determined using the Mercodia/ALPCO Diagnotics Ultrasensitive C-peptide ELISA according to the manufacturer's instructions.
ELISA results for human C-peptide are shown in FIG. 23 for mice transplanted with cells from each of the respective treatment groups. No circulating human C-peptide was detected at four weeks post-transplant for any mice receiving cells from any of the treatment groups.
(An ELISA detects its analyte on a solid surface through an enzyme-linked reagent.)

Test [1] has as its system human embryonic stem cells. Put plainly: Dose response of activin A and GDF-8, SOX17 intensity (Example 11, Table 11). In kind it is cell-based. The following applies: Wnt3a day 1, three days. How it is done:
Stock cultures of human embryonic stem cells (1-11 human embryonic stem cell line) were maintained in an undifferentiated, pluripotent state on reduced growth factor […]-coated dishes in MEF conditioned medium with passage on average every four days. Passage was performed by exposing cell cultures to a solution of 1 mg/ml dispase (Invitrogen, Cat #: 17105-041) for 5 to 7 minutes at 37° C. followed by rinsing the monolayer with MEF conditioned culture medium and gentle scraping to recover cell clusters. Clusters were centrifuged at low speed to collect a cell pellet and remove residual dispase. Cell clusters were split at a 1:3 or 1:4 ratio for routine maintenance culture or a 1:1 ratio for immediate assay. All human embryonic stem cell lines were maintained at passage numbers less than 50 and routinely evaluated for normal karyotypic phenotype and for absence of mycoplasma contamination.
Cell clusters used in the assay were evenly resuspended in MEF conditioned medium supplemented with 8 ng/ml bFGF and seeded onto reduced growth factor […]™-coated 96-well Packard VIEWPLATES (PerkinElmer; Cat #6005182) in volumes of 100 μl/well. MEF conditioned medium supplemented with 8 ng/ml bFGF was used for initial plating and expansion. Daily feeding was conducted by aspirating spent culture medium from each well and replacing with an equal volume of fresh medium. Plates were maintained at 37° C., 5% CO2 in a humidified box throughout the duration of assay.
The assay was initiated by aspirating the culture medium from each well and adding back an aliquot (100 μl) of test medium. Test conditions were performed in quadruplicate over a total three-day assay period, feeding on day 1 and day 2 by aspirating and replacing the medium from each well with fresh test medium. Two 12-channel polypropylene basins (Argos technologies, Inc, Cat #: B3135) were used to make the test media containing different concentrations of Activin A (PeproTech; Cat #120-14) or GDF-8 (R&D Systems, Cat #788-G8). Channels numbered 2 through 12 of each basin contained 1 ml assay medium composed of RPMI-1640 medium (Invitrogen; Cat #: 22400) supplemented with 2% Albumin Bovine Fraction V, Fatty Acid Free (FAF BSA) (MP Biomedicals, Inc; Cat #152401) and 8 ng/ml bFGF (PeproTech Inc.; Cat #: 100-18B), and with 20 ng/ml Wnt3a (R&D Systems; Cat #1324-WN/CF) added on day 1, omitted on day 2 and 3. Channel number 1 of each basin contained 1600 ng/ml Activin A or 1600 ng/ml GDF-8, diluted into the same assay medium. One ml of medium was transferred from channel number 1 to channel number 2 and mixed well. A fresh pipette tip was used to transfer one ml of medium from channel number 2 to channel number 3, followed by thorough mixing. The same procedure was repeated in sequence through channel number 11 for each respective basin. Channel number 12 of each basin contained medium without Activin A or GDF-8. By doing this, a series of two-fold test dilutions was created, containing Activin A or GDF-8 at concentrations ranging from 1.6 ng/ml to 1600 ng/ml, for addition to the respective assay wells.
At the conclusion of three days of culture, assay plates were washed once with PBS (Invitrogen; Cat #14190), fixed with 4% paraformaldehyde (Alexis Biochemical; Cat #ALX-350-011) at room temperature for 20 minutes, then washed three times with PBS and permeabilized with 0.5% Triton X-100 (Sigma; Cat #T8760-2) for 20 minutes at room temperature. Cells were washed again three times with PBS and blocked with 4% chicken serum (Invitrogen; Cat #16110082) in PBS for 30 minutes at room temperature. Primary antibody (goat anti-human SOX17; R&D Systems; Cat #AF1924) was diluted 1:100 in 4% chicken serum and added to each well for two hours at room temperature. After washing three times with PBS, Alexa Fluor 488 conjugated secondary antibody (chicken anti-goat IgG; Invitrogen; Cat #A21467) diluted 1:200 in PBS was added to each well. […]

In the case of `C=CCN1CC(=O)NCCCc2cncc(c2)-c2ncnc(n2)Nc2cccc(c2)C1` [Compound 40, 14-Prop-2-en-1-yl-3,5,7,14,17,23,27-heptaazatetracyclo[19.3.1.1˜2.6˜0.1˜8,12˜]heptacosa-1(25), 2(27), 3,5,8(26), 9,11,21,23-nonaen-16-one], in the test with scid-beige mice, the “mice with detectable C-peptide” value is “one of three mice”.
On to “Activin A: recombinant human activin A (PeproTech), TGF-beta family member”, for which the “Normalized SOX17 Intensity, Average” value in test [1] (1.56 ng/ml growth factor) is 0.10%; in test [1] (3.13 ng/ml growth factor), 3.00%; in test [1] (6.25 ng/ml growth factor), 18.40%; in test [1] (12.50 ng/ml growth factor), 50.90%; in test [1] (25 ng/ml growth factor), 73.10%; in test [1] (50 ng/ml growth factor) it was 85.20%. Moreover, the “Normalized SOX17 Intensity, Average” value in test [1] (100 ng/ml growth factor) was found to be 90.70%; in test [1] (200 ng/ml growth factor) it was 100.00%; in test [1] (400 ng/ml growth factor) it was 100.00%; in test [1] (800 ng/ml growth factor), 100.00%; in test [1] (1600 ng/ml growth factor), 100.00%. In test [1], the “EC50 (SOX17 intensity, GraphPad Prism)” value came out at 0.0139 µg/mL.
As for “GDF-8: growth factor GDF-8, also known as myostatin, member of the TGF-β family”, the “Normalized SOX17 Intensity, Average” value is on record as 0.00% in test [1] (1.56 ng/ml growth factor); 0.10% in test [1] (3.13 ng/ml growth factor); 0.70% in test [1] (6.25 ng/ml growth factor); 0.90% in test [1] (12.50 ng/ml growth factor); 5.10% in test [1] (25 ng/ml growth factor); 17.60% in test [1] (50 ng/ml growth factor). In addition, the “Normalized SOX17 Intensity, Average” value is recorded as 32.70% in test [1] (100 ng/ml growth factor); 51.30% in test [1] (200 ng/ml growth factor); 72.20% in test [1] (400 ng/ml growth factor); 84.90% in test [1] (800 ng/ml growth factor); 100.00% in test [1] (1600 ng/ml growth factor). The “EC50 (SOX17 intensity, GraphPad Prism)” value in test [1] is 0.1848 µg/mL.
